Drawing on patent US12357603B2, “Acyl sulfonamides for treating cancer” (Bayer Aktiengesellschaft, priority 2019, dated 2025), this text covers IC50 and EC50 for 16 compounds.

In assay [1] the target is Recombinant human His-tagged Kat6a protein (amino acids 194-810) (Homo sapiens (Human), UniProt Q92794). The assay is described as follows: Kat6a activity assay (TR-FRET, acetylation of biotinylated Histone-H4-derived peptide). It counts as biochemical. Particulars: 60 mins at 22° C., read-out: KAT6A-DPF/HAT domain IC50 [mol/l] (arithmetic mean). An excerpt:
Kat6a inhibitory activities of the compounds described in the present invention were quantified using a Fluorescence Resonance Energy Transfer (TR-FRET) assay which measures acetylation of a synthetic, biotinylated Histone-H4-derived peptide by the enzyme.
Recombinant human His-tagged Kat6a protein (amino acids 194-810), was purified in-house from Baculovirus-infected insect cells (Sf9). Histone H4 peptide (amino acids 1-24, […]-VLRD-K(Btn)-amide), which was used as substrate, was synthesized by Biosyntan GmbH, Berlin, Germany. Acetyl Coenzyme A was purchased from Sigma-Aldrich (#A-2056).
Kat6a was incubated for 60 mins at 22° C. in the presence of different concentrations of test substances (0 μM, and within the range 0.01-20 μM) in assay buffer [25 mM Tris/HCl pH 8, 1 mM EGTA, 2.5 mM Glutathion, 0.02% Chicken Albumin, 0.05% Pluronic F127, 25 mM NaCl, 220 nM H4 peptide and 600 nM Acetyl Coenzym A].
The reaction was stopped by addition of Detection Solution (25 mM HEPES pH 7.5, 0.1% BSA, 22 nM SAXL665 (Cisbio #610SAXLE), 100 μM Anacardic Acid (Enzo #ALX-270-381), 1 nM Anti-Histone H4 (ACETYL K8) Antibody (ABCAM #AB15823) and 0.5 nM Anti-Rabbit IgG Eu (Perkin Elmer #AD0083).
The fluorescence emission at 620 nm and 665 nm after excitation at 330-350 nm was measured in a TR-FRET measuring instrument, for instance a Rubystar or a Pherastar (both from BMG Lab Technologies, Offenburg, Germany) or a Viewlux (Perkin-Elmer). The ratio of the emission at 665 nm and at […] was used as indicator of the amount of acetylated peptide.
The resulting data (ratio) were normalized, taking 0% inhibition as the mean value of control measurements where all reagents were included. In this case 50 nl DMSO were used instead of compounds. […] IC50 values were determined by regression analysis based on a 4 parameter equation (minimum, maximum, ICM, Hill; Y=Max+(Min−Max)/(1+(X/ICso) Hill) using the Screener Software (Genedata).
Table 5 depicts the IC50 values of selected examples in biochemical KAT6A and KAT6B3 assays.

The next assay concerns ZR-75-1 cells. The assay is described as follows: Proliferation assay ZR-75-1 (Alamar Blue, 144 h). It counts as cell-based. Particulars: Homo sapiens, ZR-75-1, 144 h, arithmetic mean, read-out: ZR75-1 proliferation assay, EC50 [M] (arithmetic mean). An excerpt:
(§1) Proliferation Assays for Compound Characterization
(§2) For compound characterization cell survival assays were routinely run in two cell lines. ZR-75-1 is a breast carcinoma cell line containing a focal KAT6A amplification and high KAT6A protein expression. Proliferation of this cell line is inhibited upon treatment with KAT6A inhibitors. As a negative control cell line MDA-MB-436 were used. These cells carry a […] deletion of the KAT6A gene, have a low KAT6A protein expression and are not growth inhibited upon treatment with KAT6A inhibitors.
(§3) For measurements cell lines were plated at the below indicated concentration per […] in 96-well plates in a humidified incubator at 37° C. and 5% CO2.
ZR-75-1 (ATCC, CRL-1500; breast carcinoma); 3000 cells per well; culture medium: RPMI 1640 (Biochrom #FG 1215) medium containing 2.5% FBS (Biochrom #S0615).
(§4) 24 hours later, cells were treated with compounds (stock solution, 10 mM in DMSO) using the HP D300 Digital Dispenser in a concentration range of 2.0×10E-5 M to 2.0×10E-9 M in a single-dot curve with 9 dilutions and a DMSO concentration of 0.2%. Each sample was prepared as triplicate and rim wells were excluded. Plates were incubated at 37° C. and 5% CO2 for 144 h. Cell viability was measured by adding 10 μL of Alamar Blue Reagent (Invitrogen #DAL 1100) and plates were incubated for 2 h at 37° C. and 5% CO2. Fluorescence was measured at 590 nm wavelength with a Tecan Spark or Victor X3 MTP-Reader (PerkinElmer).
In general terms: Alamar Blue is a resazurin reagent that responds to reducing activity.

Another assay deals with MDA-MB-436 cells. The assay is described as follows: Proliferation assay MDA-MB-436, negative control cell line (Alamar Blue, 144 h). It counts as cell-based. As to conditions: Homo sapiens, MDA-MB-436, 144 h, arithmetic mean.
Excerpt: as §1, §2, §3
MDA-MB-436 (CLS, 300278; breast adenocarcinoma); 3000 cells per well; culture medium: DMEM/Ham's F12 (Biochrom #FG 4815) medium containing 2.5% FBS (Biochrom #S0615).
as §4

Assay [2] relates to ESR1 transcription (luciferase signal in MVLN cells). The assay is described as follows: Repression of ESR1 transcription, luciferase reporter in MVLN cells. As to conditions: Homo sapiens, MVLN, inhibition of luciferase signal in MVLN cells; arithmetic mean. It counts as cell-based. An excerpt:
Repression of ESR1 Transcription Upon Treatment of Cells with Compounds
KAT6A controls transcription of the ESR1 gene in breast cancer cells. Compound treatment that interferes with this mechanism was quantified using MVLN cells. These cells constitutively express the ER and are stably transfected with the luciferase (LUC) reporter gene and the corresponding hormone responsive element derived from the 5′-flanking region of the Xenopus Vitellogenin A2 gene (Pons et al., 1990, Demirpense et al., 1993, Joyeux et al., 1993). The repressive effect on ERα transcription activity of a test chemical is directly related to the luciferase measured in the lysate of treated MVLN cells.
Each sample was prepared as duplicate and rim wells were excluded. For luciferase signal determination 100 μl of a 1:1 mixture of Steadylite plus (Perkin Elmer; 6016759) and assay medium was added after 24 h for 15 minutes and measured in Victor X3 (Perkin Elmer). To exclude any effects caused by cell loss during the treatment, cell density was determined using Alamar Blue (Invitrogen; DAL1100). Prior to the luciferase measurement 10 μl Alamar Blue were added to each well and the plates were incubated for 2 h in the incubator. Then fluorescence was measured with Victor X3 (Perkin Elmer) at 530 nm/590 nm.
In general terms: A reporter such as luciferase makes a cellular process visible.

Sequence of Recombinant human His-tagged Kat6a protein (amino acids 194-810) (Q92794 194-810): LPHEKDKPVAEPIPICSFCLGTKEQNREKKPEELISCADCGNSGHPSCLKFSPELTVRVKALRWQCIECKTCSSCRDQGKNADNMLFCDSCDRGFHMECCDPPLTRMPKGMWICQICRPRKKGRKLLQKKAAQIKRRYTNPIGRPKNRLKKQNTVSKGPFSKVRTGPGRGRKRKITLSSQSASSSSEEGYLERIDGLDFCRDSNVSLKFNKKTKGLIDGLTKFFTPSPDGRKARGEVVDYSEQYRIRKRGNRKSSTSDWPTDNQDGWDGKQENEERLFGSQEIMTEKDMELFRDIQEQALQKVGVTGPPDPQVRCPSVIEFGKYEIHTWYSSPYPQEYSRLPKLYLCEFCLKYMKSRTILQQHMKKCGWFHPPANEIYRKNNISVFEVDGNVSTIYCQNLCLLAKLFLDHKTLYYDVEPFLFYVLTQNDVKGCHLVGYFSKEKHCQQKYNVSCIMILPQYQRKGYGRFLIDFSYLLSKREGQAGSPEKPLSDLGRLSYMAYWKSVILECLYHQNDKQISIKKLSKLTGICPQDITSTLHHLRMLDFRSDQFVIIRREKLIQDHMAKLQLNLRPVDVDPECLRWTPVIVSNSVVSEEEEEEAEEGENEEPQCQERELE

Regarding `CC(C)c1ccc(OCC(F)(F)F)c(S(=O)(=O)NC(=O)c2cc3ccc(N(C)C)cc3o2)c1` [Example 178, 6-(Dimethylamino)-N-[5-isopropyl-2-(2,2,2-trifluoroethoxy)phenyl]sulfonyl-benzofuran-2-carboxamide], the IC50 in assay [1] is 11 nM; in assay [2], 69.6 nM. The EC50 in the assay with ZR-75-1 cells was 8.65e-08 M; in the assay with MDA-MB-436 cells, more than 20 µM.
The like results for `CC(C)Oc1ccc(C(C)(C)C)cc1S(=O)(=O)NC(=O)c1cc2ccc(N(C)C)cc2o1` [Example 183, N-((5-(tert-butyl)-2-isopropoxyphenyl)sulfonyl)-6-(dimethylamino)benzofuran-2-carboxamide] were, in that order, 15.4 nM, 45.5 nM, 7.53e-08 M and more than 20 µM.
On to `CCOc1ccc(C(C)CC)cc1S(=O)(=O)NC(=O)c1cc2ccc(N(C)C)cc2o1` (racemic) [Example 170, 6-(Dimethylamino)-N-(2-ethoxy-5-sec-butyl-phenyl)sulfonyl-benzofuran-2-carboxamide (rac)], for which the IC50 worked out at 4.4 nM in assay [1] and 22.1 nM in assay [2]. The EC50 in the assay with ZR-75-1 cells was 3.02e-08 M; in the assay on MDA-MB-436 cells, more than 20 µM.
Taken in the same sequence, the figures for `CN(C)c1cc2oc(C(=O)NS(=O)(=O)c3ccccc3-c3ccccc3)cc2cc1Br` [Example 217, N-([1,1′-biphenyl]-2-sulfonyl)-5-bromo-6-(dimethylamino)-1-benzofuran-2-carboxamide] were 5540 nM, more than 20000 nM, 8.13e-06 M and more than 20 µM.
Taken in the same sequence, the figures for `CC(C)Oc1ccccc1S(=O)(=O)NC(=O)c1cc2c(F)cc(N(C)C)cc2o1` [Example 109, 6-(Dimethylamino)-4-fluoro-N-{2-[(propan-2-yl)oxy]benzene-1-sulfonyl}-1-benzofuran-2-carboxamide] were 7.09 nM, 9.67 nM, 3.7e-08 M and more than 20 µM.
The like results for `CCOc1nccc(C(F)(F)F)c1S(=O)(=O)NC(=O)c1cc2ccc(N(C)C)cc2o1` [Example 120, 6-(Dimethylamino)-N-[2-ethoxy-4-(trifluoromethyl)pyridine-3-sulfonyl]-1-benzofuran-2-carboxamide] were, in that order, 1850 nM, 891 nM, 4.57e-07 M and more than 20 µM.
As for `COCCN(C)c1ccc2cc(C(=O)NS(=O)(=O)c3ccc(C)cc3-c3ccccc3)oc2c1` [Example 214, 6-[(2-Methoxyethyl)(methyl)amino]-N-(5-methyl[1,1′-biphenyl]-2-sulfonyl)-1-benzofuran-2-carboxamide], the IC50 in assay [1] stood at 732 nM; in assay [2], 5530 nM. Besides, the EC50 was 6.14e-06 M in the assay on ZR-75-1 cells and more than 20 µM in the assay on MDA-MB-436 cells.
Taken in the same sequence, the figures for `CN(C)c1ccc2cc(C(=O)NS(=O)(=O)c3c(Cl)cccc3C(F)(F)F)oc2c1` [Example 97, N-[2-Chloro-6-(trifluoromethyl)benzene-1-sulfonyl]-6-(dimethylamino)-1-benzofuran-2-carboxamide] were 465 nM, 571 nM, 6.15e-07 M and more than 20 µM.
The like results for `Cc1cccnc1CS(=O)(=O)NC(=O)c1cc2ccc(N(C)C)cc2o1` [Example 105, 6-(Dimethylamino)-N-[(3-methylpyridin-2-yl)methanesulfonyl]-1-benzofuran-2-carboxamide] were, in that order, 1960 nM, 11600 nM, 3.72e-06 M and more than 20 µM.
As to `CN(c1ccccc1)c1ccc2cc(C(=O)NS(=O)(=O)c3ccc(Cl)cc3Cl)oc2c1` [Example 9, N-(2,4-Dichlorophenyl)sulfonyl-6-(N-methylanilino)benzofuran-2-carboxamide], the values for the EC50 in the assay on ZR-75-1 cells and in the assay on MDA-MB-436 cells were more than 2e-05 M and more than 20 µM, respectively. This compound registered an IC50 in assay [2] of more than 20000 nM.
The like results for `CCCN(C)c1ccc2cc(C(=O)NS(=O)(=O)c3ccccc3-c3ccccc3)oc2c1` [Example 37, N-([1,1′-Biphenyl]-2-sulfonyl)-6-[methyl(propyl)amino]-1-benzofuran-2-carboxamide] were, in that order, more than 2e-05 M, more than 20 µM and 14000 nM.
Taken in the same sequence, the figures for `CCN(C)c1ccc2cc(C(=O)NS(=O)(=O)c3ccc(Cl)cc3Cl)oc2c1` [Example 3, N-(2,4-Dichlorophenyl)sulfonyl-6-[ethyl(methyl)amino]benzofuran-2-carboxamide] were 2e-05 M, more than 20 µM and 4280 nM.
On to `COCCN(C)c1ccc2cc(C(=O)NS(=O)(=O)c3ccccc3-c3ccccc3)oc2c1` [Example 39, N-([1,1′-Biphenyl]-2-sulfonyl)-6-[(2-methoxyethyl)(methyl)amino]-1-benzofuran-2-carboxamide], for which the EC50 with ZR-75-1 cells is 3.41e-08 M; in the assay with MDA-MB-436 cells it was more than 20 µM. Moreover, the IC50 in assay [2] was found to be 100 nM.
For the compound `O=C(NS(=O)(=O)c1ccccc1-c1ccccc1)c1cc2ccc(N3CCCC3=O)cc2o1` [Example 62, N-([1,1′-Biphenyl]-2-sulfonyl)-6-(2-oxopyrrolidin-1-yl)-1-benzofuran-2-carboxamide], the EC50 in the assay on ZR-75-1 cells was 1.09e-06 M; with MDA-MB-436 cells, 11.4 µM. In assay [2], this compound showed an IC50 of 3070 nM.
The like results for `CN(C)c1ccc2cc(C(=O)NS(=O)(=O)c3c(Cl)cccc3Cl)oc2c1` [Example 98, N-(2,6-Dichlorobenzene-1-sulfonyl)-(dimethylamino)-1-benzofuran-2-carboxamide] were, in that order, 8.17e-07 M, more than 20 µM and 603 nM.
The like results for `CC(C)Oc1ccccc1S(=O)(=O)NC(=O)c1cc2cc(Br)c(N(C)C)cc2o1` [Example 208, 5-Bromo-6-(dimethylamino)-N-{2-[(propan-2-yl)oxy]benzene-1-sulfonyl}-1-benzofuran-2-carboxamide] were, in that order, 1.83e-05 M, more than 20 µM and 14600 nM.
